Data: patent publication US6043283A, “Tyramine compounds and their neuronal effects” (priority 1997, dated 2000)
“Also recorded” adds a separate entry of the source. Where two headings read alike, the source gives them in different places. Ends that are not written are not given here.

Assays:
[1] = tested on: NTox released by Aβ1-42-stimulated microglia (neuron killing); assay: cells; format: cell-based, rat; conditions: for neuroprotective effect: Aβ1-42-stimulated microglia; for protective effect: 10 μM, 72 hours, FIG. 30
From the text: . Briefly, hippocampal cells obtained from embryonic stage 18 rat fetuses were dispersed mechanically in the presence of 0.125% trypsin and plated onto poly-L-lysine coated glass coverslips in 24 well plates at 250,000 cells per well (resulting in adhering cell densities of about 1250 cells per mm^2) in chemically-defined N2 culture media containing 5% fetal bovine serum. Gradual reduction of serum began on day 10 in vitro with daily 1:1 volume replacements with chemically-defined media, until a final concentration of 0.6% serum was achieved. […]; see FIG. 18). In order to eliminate microglia, cultures were exposed to saporin (sap; a ribosome-inactivating protein; Davis and Wiley, 1989) coupled to acetylated LDL (ac-LDL) at a concentration of 10 μg/ml for 12 hours. […] Cultures depleted of microglia were then exposed to test substances in the presence or absence of exogenous microglia (100,000 cells per culture). […]. Controls included cultures without saporin-treatment, cultures without test substances, and cultures with test substances but lacking microglia.
(§1) On day 14 of culture, immediately following saporin treatment, test substances were added to the hippocampal cultures. Synthetic peptide were supplied as 1 mM stock solutions in 0.1 M phosphate buffered saline, pH 7.2, stored for at least 1 week at 4° C. before use. After 72 hours incubation, the cultures were fixed in 4% paraformaldehyde at room temperature for 18 hours and immuno-stained by overnight incubation with a mixture of anti-neurofilament antibodies (NF; SMI-311, 1:600; Stemberger Monoclonals, Inc.) plus anti-MAP-2 (Boehringer Mannheim, 184959; 1:600) at 4° C. in the presence of 2% horse serum and 0.3% triton X-100 to delineate both neuronal cell bodies and neurites. Astroglia were visualized using sheep anti-glial fibrillary acidic protein (GFAP, Sigma) as described by Giulian et al., 1989. Finally, to label all cell nuclei, the coverslips were exposed to 0.01% bisbenzimide (Hoechst 33258; Sigma) in PBS, pH 6.9, and rinsed in distilled water and mounted in glycerin. Immuno-labeled cells per field and nuclei per field were scored at 200X magnification using fluorescence microscopy. Data were expressed as % mean survival expressed in terms of parallel untreated control cultures after scoring at least 20 randomly selected fields for each of 3 coverslips.
The procedures described above and by Giulian et al, 1996, provided for the identification of tyramine compounds as therapeutic agents for neurodegenerative diseases or disorders including, for example, Alzheimer's disease. Cells from the brain of fetal rats were grown in tissue cultures. Microglial populations within the cultures were controlled following the method described in Example 5 above. Known amounts of Aβ peptides coupled to microspheres were added to the culture. The Aβ spheres stimulated the microglia to release NTox, which in turn destroyed the neurons. The neurons in the cultures were monitored for survival by immuno-staining.
Generally, drug assays involve the addition of known concentrations of a test agent over a range of concentrations. After 72 hours, the experiment is stopped and the neurons are identified by immuno-staining. The data is expressed as % neuronal survival […]. Dose response curves are then used to estimate Effective Dose50 % (ED50) of neuroprotective agents. […].
In this experiment, about 65% of the neurons were destroyed by the Aβ-stimulated microglia. […] Other tyramine compounds, including tyrosine esters, were neuroprotective (FIG. 30).
Following the methods described herein, numerous compounds were examined to determine their neuroprotective activity. […]

[2] = tested on: Aβ1-42-stimulated microglia; format: cell-based, rat; conditions: for effect of signal transduction inhibitors on microglia stimulated by Aβ1-42: 0.01 to 100 μM, FIG. 11
From the text: Briefly, hippocampal cells obtained from embryonic stage 18 rat fetuses were dispersed mechanically in the presence of 0.125% trypsin and plated onto poly-L-lysine coated glass coverslips in 24 well plates at 250,000 cells per well (resulting in adhering cell densities of about 1250 cells per mm^2) in chemically-defined N2 culture media containing 5% fetal bovine serum. Gradual reduction of serum began on day 10 in vitro with daily 1:1 volume replacements with chemically-defined media, until a final concentration of 0.6% serum was achieved. […] In order to eliminate microglia, cultures were exposed to saporin (sap; a ribosome-inactivating protein; Davis and Wiley, 1989) coupled to acetylated LDL (ac-LDL) at a concentration of 10 μg/ml for 12 hours. […] Cultures depleted of microglia were then exposed to test substances in the presence or absence of exogenous microglia (100,000 cells per culture). […] Controls included cultures without saporin-treatment, cultures without test substances, and cultures with test substances but lacking microglia.
as §1

microglia = assay: inhibition of SpheresAβ1-42 binding to microglia; set-up: species or system rat; conditions: for inhibition of SpheresAβ1-42 binding by GAGs and scavenger receptor ligands: heparin sulfate 50 μg/ml, dextran sulfate 500 μg/ml, ac-LDL 200 μg/ml
Method: Spheresmal-BSA (which bind to scavenger receptors) or SpheresAβ1-42 were incubated with microglia for 4 hours following pre-treatment of cells with trypsin (5000 units/ml at 37° C. for 60 min followed by inactivation with soybean trypsin inhibitor), with heparinase (heparin lyase EC 4.2.2.7; two consecutive treatments each of 0.01 units/ml for 60 min), or with chondroitinase ABC (chondroitin ABC lyase EC 4.3.3.4; two consecutive treatments each of 0.02 units/ml for 60 min). […] Microglia mixed with hippocampal neurons were treated with combinations of β-D-xyloside (1 mm), heparinase (0.02 units/ml), or chondroitinase (0.04 units/ml) and then exposed to plaques.
Each well then received 250,000 SpheresAβ1-42 or Spheresmal-BSA in the presence or absence of Aβ peptides, GAGs, or scavenger receptor ligands. Binding assays were carried out at 37° C. for 4 hours after which coverslips were dipped 10 times in phosphate buffer and fixed with 4% buffered paraformaldehyde. Microsphere adherence to cells was scored at 200 magnification with phase/fluorescence microscopy. Data, expressed as % inhibition of sphere binding, was calculated from total number of spheres per field noted for control cultures receiving spheres only. Values are based upon at least 3 coverslips from 2 independent experiments. […] Washed spheres were resuspended in 0.2 M borate buffer (pH 8.5) in the presence of 300 μg Aβ or 400 μg BSA in 6% DMSO. After overnight mixing at room temperature, the spheres were washed extensively and blocked by 1 M glycine (pH 8.0) for 30 minutes.

[3] = tested on: rat microglia / hippocampal neurons; conditions: rat microglia; mostly 1 μmole/l
rat microglia = assay: binding of Aβ-coupled microspheres to microglia; conditions: 4 hours at 37° C. (72 h in FIG. 23)

Compound: N[C@@H](Cc1ccc(O)c(O)c1)C(=O)O [DOPA]
- neuroprotective activity (structure/function) ([1]; Example 14): little or no neuroprotective activity

Compound: CC(C)(C)OC(=O)[C@@H](N)Cc1ccc(O)c(I)c1 [mono-iodinated tyrosine t-butyl ester]
- neuroprotective effect [1]: have neuroprotective effects
- neuroprotective activity (structure/function) ([1]; Example 14): enhance neuroprotective effects

Compound: NCCc1cc(O)c(O)cc1O [6--OH dopamine]
- neuroprotective activity (structure/function) ([1]; Example 14): little or no neuroprotective activity

Compound: Nc1ccccc1N [phenylenediamine]
- neuroprotective activity (structure/function) ([1]; Example 14): little or no neuroprotective activity

Compound: COc1c(C=O)c(O)cc2c1C(=O)c1ccccc1C2=O [damacanthal]
- effect of signal transduction inhibitors on microglia stimulated by Aβ1-42 [2]: had a protective effect

Compound: NC(Cc1cc(O)c(O)cc1O)C(=O)O (stereo not shown) [6--OH DOPA]
- neuroprotective activity (structure/function) ([1]; Example 14): little or no neuroprotective activity

Compound: CN[C@@H](C)[C@H](O)c1ccccc1 [ephedrine]
- neuroprotective activity (structure/function) ([1]; Example 14): little or no neuroprotective activity

Compound: CCN(CC)CCCC(C)Nc1ccnc2cc(Cl)ccc12 (stereo not shown) [chloroquine]
- effect of immunosuppressive drugs on microglia stimulated by Aβ1-42 ([2]; 0.1 to 10 μM, FIG. 10): had a protective effect; also recorded: inhibit neuron killing

Compound: NCCc1ccc(O)c(O)c1 [dopamine]
- neuroprotective activity (structure/function) [1]: little or no neuroprotective activity

Compound: CCOC(=O)[C@@H](N)Cc1ccc(O)cc1 [tyrosine ethyl ester]
- neuroprotective activity (structure/function) ([1]; Example 14): little or no neuroprotective activity

Compound: Oc1cccc(O)c1 [resorcinol]
- neuroprotective activity (structure/function) ([1]; Example 14): little or no neuroprotective activity

Compound: CCCCOc1ccc(O)cc1 [4-butoxyphenol]
- neuroprotective activity (structure/function) ([1]; Example 14): little or no neuroprotective activity

Compound: O=c1c(-c2ccc(O)cc2)coc2cc(O)cc(O)c12 [genistein]
- effect of signal transduction inhibitors on microglia stimulated by Aβ1-42 [2]: had a protective effect

Compound: N[C@@H](Cc1ccc(O)cc1)C(=O)Nc1ccc2ccccc2c1 [tyrosine β-naphthylamide]
- neuroprotective activity (structure/function) ([1]; Example 14): enhance neuroprotective effects

Compound: CC(C)(C)OC(=O)[C@@H](N)Cc1cc(I)c(O)c(I)c1 [di-iodinated tyrosine t-butyl ester]
- neuroprotective effect [1]: have neuroprotective effects
- neuroprotective activity (structure/function) ([1]; Example 14): enhance neuroprotective effects

Compound: C=CCOC(=O)[C@@H](N)Cc1ccc(O)cc1 [tyrosine allyl ester]
- protective effect [1]: neuron survival was markedly enhanced
- neuroprotective activity (structure/function) ([1]; Example 14): enhance neuroprotective effects

Compound: tyrosine butyl ester
- protective effect [1]: neuron survival was markedly enhanced

Compound: NCCc1ccccc1 [phenethylamine]
- neuroprotective activity (structure/function) ([1]; Example 14): little or no neuroprotective activity

Compound: CC(=O)NCCc1ccc(O)cc1 [acetylated tyramine]
- neuroprotective activity (structure/function) [1]: little or no neuroprotective activity

Compound: NC[C@H](O)c1ccc(O)c(O)c1 [norepinephrine]
- neuroprotective activity (structure/function) ([1]; Example 14): little or no neuroprotective activity

Compound: N[C@@H](Cc1ccc(O)cc1)C(=O)O [tyrosine]
- protective effect [1]: no protective effect
- neuroprotective activity (structure/function) ([1]; Example 14): little or no neuroprotective activity

Compound: NNC(=O)[C@@H](N)Cc1ccc(O)cc1 [tyrosine hydrazide]
- neuroprotective activity (structure/function) ([1]; Example 14): little or no neuroprotective activity

Compound: Aβ1-42Gln13Gln14: synthetic peptide Aβ1-42Gln13Gln14
- inhibition of SpheresAβ1-42 binding by peptides (microglia; 10 μmoles/l, 4 hours, 37° C.): unable to block
- induction of neurotoxic microglia / neuron killing [3]: unable to elicit neurotoxic responses

Compound: heparin sulfate
- inhibition of SpheresAβ1-42 binding by GAGs and scavenger receptor ligands (microglia): blocked; also recorded: reduction of binding
- inhibition of SpheresAβ1-42 binding by GAGs and scavenger receptor ligands (microglia; listed as heparan sulfate): block Aβ binding to microglia

Compound: Aβ17-43-microspheres: Aβ17-43 coupled to fluorescent microspheres (LVFFAEDVGSNKGAIIGLMVGGVVIAT; also: coupled to fluorescent microspheres; UniProt P05067 688-714, looked up, fragment)
- binding of peptide-coupled microspheres to microglia (rat microglia): no consistent association with microglia
- binding of peptide-coupled microspheres to microglia (rat microglia; listed as Aβ17-43 coupled microspheres): not engulfed by microglia

Compound: COC(=O)[C@@H](N)Cc1ccc(O)cc1 [tyrosine methyl ester]
- neuroprotective activity (structure/function) ([1]; Example 14): little or no neuroprotective activity

Compound: chondroitin sulfate
- inhibition of SpheresAβ1-42 binding by GAGs and scavenger receptor ligands (microglia): only heparin sulfate blocked; also recorded: not similar compounds

Compound: CNC[C@H](O)c1ccc(O)c(O)c1 [epinephrine]
- neuroprotective activity (structure/function) [1]: little or no neuroprotective activity

Compound: Aβ10-42: Aβ peptide residues 10-42 (YEVHHQKLVFFAEDVGSNKGAIIGLMVGGVVIA; Amyloid-beta protein 42; UniProt P05067 681-713, looked up, fragment)
- binding of peptide-coupled microspheres to microglia (rat microglia): bound to microglia

Compound: NC(=O)[C@@H](N)Cc1ccc(O)cc1 [tyrosinamide]
- neuroprotective activity (structure/function) ([1]; Example 14): little or no neuroprotective activity
